How the values were obtained:
D(3) dopamine receptor [1] = target: T1, D(3) dopamine receptor (Rattus norvegicus, UniProt P19020); design: species or system Tissue
D(1A) dopamine receptor [2] = target: T2, D(1A) dopamine receptor (Rattus norvegicus, UniProt P18901)
[3] = target: T3, Adrenergic receptor alpha-1 (Rattus norvegicus, UniProt P15823+P23944+P43140); assay type: tissue-based, Frontal cortex
T3 sequence (P15823 whole entry): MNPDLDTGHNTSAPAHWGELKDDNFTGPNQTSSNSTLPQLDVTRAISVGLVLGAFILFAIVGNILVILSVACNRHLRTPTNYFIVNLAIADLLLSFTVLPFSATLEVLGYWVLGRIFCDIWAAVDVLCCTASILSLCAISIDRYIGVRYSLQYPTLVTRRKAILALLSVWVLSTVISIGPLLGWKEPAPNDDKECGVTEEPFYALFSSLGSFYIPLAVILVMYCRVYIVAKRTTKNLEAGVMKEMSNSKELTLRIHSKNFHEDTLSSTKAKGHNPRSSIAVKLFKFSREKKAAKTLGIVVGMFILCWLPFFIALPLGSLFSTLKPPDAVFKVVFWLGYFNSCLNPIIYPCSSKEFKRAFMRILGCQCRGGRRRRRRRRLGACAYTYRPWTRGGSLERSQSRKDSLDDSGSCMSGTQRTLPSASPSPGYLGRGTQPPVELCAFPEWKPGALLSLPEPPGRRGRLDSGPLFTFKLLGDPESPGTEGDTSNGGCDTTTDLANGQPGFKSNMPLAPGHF
T3 sequence (P23944 whole entry): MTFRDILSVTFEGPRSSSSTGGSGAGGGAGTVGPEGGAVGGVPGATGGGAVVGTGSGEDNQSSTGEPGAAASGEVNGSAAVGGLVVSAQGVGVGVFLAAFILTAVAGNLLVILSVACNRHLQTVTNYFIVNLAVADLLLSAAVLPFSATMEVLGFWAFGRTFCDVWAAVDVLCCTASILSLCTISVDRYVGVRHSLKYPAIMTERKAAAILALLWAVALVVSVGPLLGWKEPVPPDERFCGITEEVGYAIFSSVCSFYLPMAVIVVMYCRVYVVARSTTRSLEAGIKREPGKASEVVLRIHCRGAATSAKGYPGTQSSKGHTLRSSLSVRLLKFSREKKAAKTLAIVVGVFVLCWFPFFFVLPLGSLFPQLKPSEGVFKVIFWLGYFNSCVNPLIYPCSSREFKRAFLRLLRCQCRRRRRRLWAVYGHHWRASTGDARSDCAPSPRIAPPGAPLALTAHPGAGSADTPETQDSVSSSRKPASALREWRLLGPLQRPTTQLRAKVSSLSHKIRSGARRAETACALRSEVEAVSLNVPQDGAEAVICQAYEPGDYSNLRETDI
T3 sequence (P43140 whole entry): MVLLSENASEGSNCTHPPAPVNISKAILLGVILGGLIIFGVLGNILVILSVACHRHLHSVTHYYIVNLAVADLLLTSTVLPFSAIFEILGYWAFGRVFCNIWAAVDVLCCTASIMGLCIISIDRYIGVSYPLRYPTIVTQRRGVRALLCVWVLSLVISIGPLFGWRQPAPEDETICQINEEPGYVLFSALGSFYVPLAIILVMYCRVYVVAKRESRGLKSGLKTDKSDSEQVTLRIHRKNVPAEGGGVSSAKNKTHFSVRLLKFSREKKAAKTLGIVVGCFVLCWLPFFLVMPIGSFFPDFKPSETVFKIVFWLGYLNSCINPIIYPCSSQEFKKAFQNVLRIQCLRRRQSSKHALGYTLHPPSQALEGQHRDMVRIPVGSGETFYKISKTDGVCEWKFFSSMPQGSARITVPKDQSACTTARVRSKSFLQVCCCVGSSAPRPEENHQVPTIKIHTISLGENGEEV

[4] = target: T4, Adrenergic receptor alpha-2 (Rattus norvegicus, UniProt P22086+P19328+P22909); assay type: tissue-based, Frontal cortex
T4 sequence (P22086 whole entry): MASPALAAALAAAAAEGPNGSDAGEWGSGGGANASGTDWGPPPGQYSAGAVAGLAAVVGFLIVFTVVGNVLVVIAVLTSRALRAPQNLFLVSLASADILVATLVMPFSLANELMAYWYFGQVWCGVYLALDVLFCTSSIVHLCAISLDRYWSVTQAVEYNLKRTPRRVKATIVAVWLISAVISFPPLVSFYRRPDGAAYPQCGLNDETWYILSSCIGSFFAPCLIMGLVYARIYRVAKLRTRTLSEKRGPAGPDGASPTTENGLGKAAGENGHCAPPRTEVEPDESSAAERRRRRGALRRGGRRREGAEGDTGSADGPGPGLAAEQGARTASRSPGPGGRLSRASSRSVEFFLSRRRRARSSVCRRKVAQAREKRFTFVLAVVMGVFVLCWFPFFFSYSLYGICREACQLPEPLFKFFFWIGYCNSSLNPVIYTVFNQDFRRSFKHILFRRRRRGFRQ
T4 sequence (P19328 whole entry): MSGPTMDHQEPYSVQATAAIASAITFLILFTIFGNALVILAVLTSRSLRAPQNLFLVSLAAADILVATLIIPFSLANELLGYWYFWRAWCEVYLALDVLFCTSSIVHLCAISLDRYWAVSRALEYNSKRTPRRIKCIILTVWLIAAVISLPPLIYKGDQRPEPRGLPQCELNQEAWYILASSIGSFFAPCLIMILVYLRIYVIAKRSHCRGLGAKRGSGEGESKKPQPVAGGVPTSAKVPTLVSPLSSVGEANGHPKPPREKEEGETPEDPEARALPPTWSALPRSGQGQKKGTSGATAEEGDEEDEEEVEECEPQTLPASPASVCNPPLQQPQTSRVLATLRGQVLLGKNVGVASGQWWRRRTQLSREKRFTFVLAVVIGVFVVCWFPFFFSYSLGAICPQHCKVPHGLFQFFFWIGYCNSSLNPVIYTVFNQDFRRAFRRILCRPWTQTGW
T4 sequence (P22909 whole entry): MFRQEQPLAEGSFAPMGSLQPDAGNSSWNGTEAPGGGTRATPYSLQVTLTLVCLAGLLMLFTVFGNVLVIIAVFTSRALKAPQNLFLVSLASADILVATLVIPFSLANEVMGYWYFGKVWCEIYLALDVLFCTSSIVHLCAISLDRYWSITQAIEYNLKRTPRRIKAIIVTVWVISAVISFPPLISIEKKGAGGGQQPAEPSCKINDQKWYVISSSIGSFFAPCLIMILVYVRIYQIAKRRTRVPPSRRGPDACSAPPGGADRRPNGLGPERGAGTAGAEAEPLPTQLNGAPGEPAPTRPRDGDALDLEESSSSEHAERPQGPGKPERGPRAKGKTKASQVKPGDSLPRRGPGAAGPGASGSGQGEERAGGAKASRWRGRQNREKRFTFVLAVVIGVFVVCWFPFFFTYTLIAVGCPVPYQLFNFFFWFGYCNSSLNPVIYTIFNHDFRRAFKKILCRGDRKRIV

Mus musculus [5] = species on record: Mus musculus; assay: animal or person; assay type: functional; details: sc, route subcutaneous
Mus musculus [6] = species on record: Mus musculus; assay: animal or person; assay type: functional; details: po
Mus musculus [7] = species on record: Mus musculus; assay: animal or person; assay type: functional; details: sc, dose 0.19 mg/kg, route subcutaneous
Mus musculus [8] = species on record: Mus musculus; assay: animal or person; assay type: functional; details: route oral
Mus musculus [9] = species on record: Mus musculus; assay: animal or person; assay type: functional; details: sc, route subcutaneous; remark: listed apart in the source
Mus musculus [10] = species on record: Mus musculus; assay: animal or person; assay type: functional; details: dose 7.9 mg/kg, route oral
[11] = target: T5, Muscarinic acetylcholine receptor M1 (Rattus norvegicus, UniProt P08482); assay: biochemical; assay type: tissue-based, Frontal cortex
T5 sequence (P08482 whole entry): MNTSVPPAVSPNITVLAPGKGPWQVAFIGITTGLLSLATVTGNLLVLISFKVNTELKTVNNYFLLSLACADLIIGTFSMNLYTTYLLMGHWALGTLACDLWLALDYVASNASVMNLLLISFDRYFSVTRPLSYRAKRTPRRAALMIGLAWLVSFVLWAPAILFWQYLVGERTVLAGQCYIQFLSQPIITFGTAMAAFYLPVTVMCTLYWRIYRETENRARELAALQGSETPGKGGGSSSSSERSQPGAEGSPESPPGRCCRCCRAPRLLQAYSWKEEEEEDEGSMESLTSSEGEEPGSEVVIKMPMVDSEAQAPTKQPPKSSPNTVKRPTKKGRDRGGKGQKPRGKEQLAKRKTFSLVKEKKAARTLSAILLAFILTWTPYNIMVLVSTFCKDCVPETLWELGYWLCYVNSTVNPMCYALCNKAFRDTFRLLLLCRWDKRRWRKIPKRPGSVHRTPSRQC

Rattus norvegicus [12] = species on record: Rattus norvegicus; details: in vivo
Rattus norvegicus [13] = species on record: Rattus norvegicus; details: in vivo; remark: listed apart in the source
Rattus norvegicus [14] = species on record: Rattus norvegicus; details: in vivo; remark: listed apart in the source
Rattus norvegicus [15] = species on record: Rattus norvegicus; details: in vivo; remark: listed apart in the source
Rattus norvegicus [16] = species on record: Rattus norvegicus; details: in vivo; remark: listed apart in the source
Rattus norvegicus [17] = species on record: Rattus norvegicus; details: in vivo; remark: listed apart in the source
Rattus norvegicus [18] = species on record: Rattus norvegicus; details: in vivo; remark: listed apart in the source
Rattus norvegicus [19] = species on record: Rattus norvegicus; details: in vivo; remark: listed apart in the source
Rattus norvegicus [20] = species on record: Rattus norvegicus; details: in vivo; remark: listed apart in the source
[21] = target: T6, 5-hydroxytryptamine receptor 2A (Rattus norvegicus, UniProt P14842); assay: biochemical
T6 sequence (P14842 whole entry): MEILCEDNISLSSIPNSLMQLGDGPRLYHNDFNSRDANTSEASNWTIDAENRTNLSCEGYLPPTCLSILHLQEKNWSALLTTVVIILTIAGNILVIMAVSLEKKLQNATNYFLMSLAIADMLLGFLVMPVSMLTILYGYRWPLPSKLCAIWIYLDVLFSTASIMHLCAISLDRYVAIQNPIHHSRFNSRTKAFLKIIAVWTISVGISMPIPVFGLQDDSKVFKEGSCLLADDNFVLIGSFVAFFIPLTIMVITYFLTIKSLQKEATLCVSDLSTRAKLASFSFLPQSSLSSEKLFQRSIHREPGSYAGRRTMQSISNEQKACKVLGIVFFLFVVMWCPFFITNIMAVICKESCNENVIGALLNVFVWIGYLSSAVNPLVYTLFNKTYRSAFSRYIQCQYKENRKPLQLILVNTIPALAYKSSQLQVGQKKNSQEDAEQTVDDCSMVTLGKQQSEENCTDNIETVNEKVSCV

[22] = target: T6, 5-hydroxytryptamine receptor 2A; assay: biochemical; assay type: tissue-based, Cerebral cortex
D(3) dopamine receptor [23] = target: T1, D(3) dopamine receptor; design: species or system Tissue; remark: listed apart in the source
D(3) dopamine receptor [24] = target: T1, D(3) dopamine receptor; design: species or system Tissue; remark: listed apart in the source
Histamine H1 receptor = Histamine H1 receptor (Rattus norvegicus, UniProt P31390); assay: biochemical; assay type: tissue-based, Frontal cortex
Histamine H1 receptor, sequence (P31390 whole entry): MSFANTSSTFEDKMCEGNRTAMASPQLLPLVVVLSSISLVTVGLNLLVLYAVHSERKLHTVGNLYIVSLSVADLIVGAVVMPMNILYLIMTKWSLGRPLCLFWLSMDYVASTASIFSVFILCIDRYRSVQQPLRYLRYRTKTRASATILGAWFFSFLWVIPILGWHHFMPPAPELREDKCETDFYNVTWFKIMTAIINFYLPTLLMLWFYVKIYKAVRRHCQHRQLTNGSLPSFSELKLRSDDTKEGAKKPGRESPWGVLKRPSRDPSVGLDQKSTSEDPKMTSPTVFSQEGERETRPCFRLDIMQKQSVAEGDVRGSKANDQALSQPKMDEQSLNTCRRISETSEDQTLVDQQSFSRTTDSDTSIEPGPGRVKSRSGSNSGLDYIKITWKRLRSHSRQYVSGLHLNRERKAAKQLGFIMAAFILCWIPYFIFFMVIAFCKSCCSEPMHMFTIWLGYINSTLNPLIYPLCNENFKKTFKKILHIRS

Mus musculus [25] = species on record: Mus musculus; assay: animal or person; assay type: functional; details: sc
Mus musculus [26] = species on record: Mus musculus; assay: animal or person; assay type: functional; details: sc, dose 0.83 mg/kg, route subcutaneous
Mus musculus [27] = species on record: Mus musculus; assay: animal or person; assay type: functional; details: sc, dose 1.5 mg/kg, route subcutaneous
D(1A) dopamine receptor [28] = target: T2, D(1A) dopamine receptor; remark: listed apart in the source

T2 sequence (P18901 whole entry): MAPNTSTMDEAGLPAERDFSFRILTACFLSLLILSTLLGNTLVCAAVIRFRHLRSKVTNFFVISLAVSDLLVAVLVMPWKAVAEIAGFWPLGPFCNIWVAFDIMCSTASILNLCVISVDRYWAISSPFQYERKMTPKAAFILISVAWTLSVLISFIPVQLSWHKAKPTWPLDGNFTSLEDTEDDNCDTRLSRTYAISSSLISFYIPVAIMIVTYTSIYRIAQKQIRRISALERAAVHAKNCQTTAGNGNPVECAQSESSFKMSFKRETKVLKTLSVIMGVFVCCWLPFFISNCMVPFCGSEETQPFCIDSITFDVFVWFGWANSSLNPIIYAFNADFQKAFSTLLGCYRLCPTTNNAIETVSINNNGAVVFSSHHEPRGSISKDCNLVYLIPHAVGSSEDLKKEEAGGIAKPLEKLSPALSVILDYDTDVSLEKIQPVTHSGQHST
T1 sequence (P19020 whole entry): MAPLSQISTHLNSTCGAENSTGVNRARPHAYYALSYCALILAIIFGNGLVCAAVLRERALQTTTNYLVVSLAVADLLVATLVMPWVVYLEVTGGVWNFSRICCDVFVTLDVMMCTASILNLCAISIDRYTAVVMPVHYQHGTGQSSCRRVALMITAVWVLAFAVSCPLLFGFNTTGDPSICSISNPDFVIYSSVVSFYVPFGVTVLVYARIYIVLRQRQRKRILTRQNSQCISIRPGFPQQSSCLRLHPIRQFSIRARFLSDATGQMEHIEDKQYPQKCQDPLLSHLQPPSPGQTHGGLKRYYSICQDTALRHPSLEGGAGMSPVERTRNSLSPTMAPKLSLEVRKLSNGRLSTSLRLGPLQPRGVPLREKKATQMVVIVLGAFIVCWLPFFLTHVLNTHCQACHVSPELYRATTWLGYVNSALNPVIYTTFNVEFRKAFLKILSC

| Structure (SMILES) | Ki (D(3) dopamine receptor [1]) [nM] | Ki (D(1A) dopamine receptor [2]) [nM] | Ki [3] [nM] | Ki [11] [nM] | Ki [21] [nM] | further results |
| --- | --- | --- | --- | --- | --- | --- |
| CN1CCN([C@H]2Cn3cccc3Sc3ccc(Cl)cc32)CC1 | 1.85 | – | – | – | – | – |
| CN1CCN([C@H]2Cc3ccccc3Sc3ccc(Cl)cc32)CC1 | 0.4 | 1.9 | – | – | – | – |
| CN1CCN([C@@H]2Cn3cccc3Sc3ccc(Cl)cc32)CC1 | 110 | – | 0.82 | 287 | – | Ki [4]: 209 nM; ED50 (Mus musculus [5]): 45 µmol/kg; ED50 at […] (Mus musculus [6]): 115 µmol/kg; ED50 at […] (Mus musculus [7]): 0.48 µmol/kg; ED50 (Mus musculus [8]): 14.3 µmol/kg; ED50 (Mus musculus [9]): 0.24 µmol/kg; ED50 at […] (Mus musculus [10]): 19.5 µmol/kg; AUC (Rattus norvegicus [12]): 145.4; AUC (Rattus norvegicus [13]): 156.3; AUC (Rattus norvegicus [14]): 133; AUC (Rattus norvegicus [15]): 193.8; AUC (Rattus norvegicus [16]): 163.4; AUC (Rattus norvegicus [17]): 20.35; AUC (Rattus norvegicus [18]): 174.4; AUC (Rattus norvegicus [19]): 133.6; AUC (Rattus norvegicus [20]): 179 |
| OCCN1CCN(C2Cn3cccc3Sc3ccc(Br)cc32)CC1 (racemic) | 10 | 20 | – | – | 23 | – |
| CCN1CCN(C2Cn3cccc3Sc3ccc(Cl)cc32)CC1 (racemic) | 4.5 | 18.2 | – | – | 5.8 | – |
| OCCN1CCN(C2Cn3cccc3Sc3ccc(F)cc32)CC1 (racemic) | – | 72 | 2.9 | 6300 | 7.1 | Ki [22]: 74.1 nM; Ki (D(3) dopamine receptor [23]): 13.2 nM; Ki (D(3) dopamine receptor [24]): 13 nM; Ki (Histamine H1 receptor): 7.1 nM |
| OCCN1CCN(C2Cn3cccc3Sc3ccc(Cl)cc32)CC1 (racemic) | 3.6 | 27 | – | – | 8.8 | – |
| CCN1CCN(C2Cn3cccc3Sc3ccc(F)cc32)CC1 (racemic) | – | 31 | 0.4 | 2340 | 4.3 | Ki (D(3) dopamine receptor [23]): 18.2 nM; Ki (D(3) dopamine receptor [24]): 18 nM; Ki (Histamine H1 receptor): 4.3 nM |
| CSc1ccc2c(c1)C(N1CCN(C)CC1)Cc1ccccc1S2 (stereo not given) [METITEPINE] | – | – | – | – | – | Ki (D(1A) dopamine receptor [28]): 2 nM |

The next lines start with results.

| Ki (D(3) dopamine receptor [1]) [nM] | Ki (D(1A) dopamine receptor [2]) [nM] | Ki [3] [nM] | Ki [11] [nM] | Ki [21] [nM] | Structure (SMILES) | further results |
| --- | --- | --- | --- | --- | --- | --- |
| 58 | 53 | – | – | 16 | CN1CCCN(C2Cn3cccc3Sc3ccc(Cl)cc32)CC1 (racemic) | Ki [22]: 53.7 nM |
| – | 14 | – | – | 12 | CN1CCN(C2Cn3cccc3Sc3ccc(Br)cc32)CC1 (racemic) | – |
| 7.4 | 14 | – | – | 23 | CCN1CCN(C2Cn3cccc3Sc3ccc(Br)cc32)CC1 (racemic) | – |
| – | – | 18.8 | 2270 | – | CN1CCN([C@@H]2Cn3cccc3Sc3ccccc32)CC1 (stereo in doubt; (+)-6a) | ED50 (Mus musculus [25]): 269 µmol/kg; ED50 at […] (Mus musculus [26]): 2.8 µmol/kg; ED50 at […] (Mus musculus [27]): 5.2 µmol/kg; Ki (Histamine H1 receptor): 9.5 nM |
| – | – | 12 | – | – | CN1CCN([C@H]2Cn3cccc3Sc3ccc(F)cc32)CC1 (stereo in doubt; (+)-6b) | – |
| – | – | 4.5 | > 10000 | – | CN1CCN([C@H]2Cn3cccc3Sc3ccc(F)cc32)CC1 (stereo in doubt; (-)-6b) | – |

Source: ChEMBL document CHEMBL1135802, “Pyrrolo[1,3]benzothiazepine-based atypical antipsychotic agents. Synthesis, structure-activity relationship, molecular modeling, and biological studies” (J Med Chem, 2002)
